# Results from ChEMBL document CHEMBL1136424, “Novel selective small molecule agonists for peroxisome proliferator-activated receptor delta (PPARdelta)--synthesis and biological activity” (Bioorg Med Chem Lett, 2003).
# Columns and labels:
# [1] = Half-life was measured in mice; type: ADME, organism-based; details: mouse, in vivo
# [2] = target: T1, Peroxisome proliferator-activated receptor delta (Homo sapiens, UniProt Q03181); experiment: Maximum transcriptional activation of human PPAR delta receptor
# T1 sequence (Q03181 whole entry): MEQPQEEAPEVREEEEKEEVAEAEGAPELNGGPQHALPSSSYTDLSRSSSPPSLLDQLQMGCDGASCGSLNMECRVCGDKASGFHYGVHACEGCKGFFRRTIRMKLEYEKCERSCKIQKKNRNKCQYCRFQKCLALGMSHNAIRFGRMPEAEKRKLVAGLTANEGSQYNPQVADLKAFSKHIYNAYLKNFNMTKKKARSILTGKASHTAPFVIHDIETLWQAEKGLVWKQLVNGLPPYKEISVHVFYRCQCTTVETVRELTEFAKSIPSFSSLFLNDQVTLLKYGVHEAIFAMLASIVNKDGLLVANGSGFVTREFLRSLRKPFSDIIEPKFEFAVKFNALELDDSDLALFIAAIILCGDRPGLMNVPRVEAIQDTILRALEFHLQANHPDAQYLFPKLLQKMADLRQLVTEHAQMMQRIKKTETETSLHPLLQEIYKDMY
# [3] = target: T1, Peroxisome proliferator-activated receptor delta; experiment: Binding affinity for human PPAR delta receptor
# [4] = target: T2, Peroxisome proliferator-activated receptor gamma (Homo sapiens, UniProt P37231); experiment: Maximum transcriptional activation of human PPAR gamma receptor
# T2 sequence (P37231 whole entry): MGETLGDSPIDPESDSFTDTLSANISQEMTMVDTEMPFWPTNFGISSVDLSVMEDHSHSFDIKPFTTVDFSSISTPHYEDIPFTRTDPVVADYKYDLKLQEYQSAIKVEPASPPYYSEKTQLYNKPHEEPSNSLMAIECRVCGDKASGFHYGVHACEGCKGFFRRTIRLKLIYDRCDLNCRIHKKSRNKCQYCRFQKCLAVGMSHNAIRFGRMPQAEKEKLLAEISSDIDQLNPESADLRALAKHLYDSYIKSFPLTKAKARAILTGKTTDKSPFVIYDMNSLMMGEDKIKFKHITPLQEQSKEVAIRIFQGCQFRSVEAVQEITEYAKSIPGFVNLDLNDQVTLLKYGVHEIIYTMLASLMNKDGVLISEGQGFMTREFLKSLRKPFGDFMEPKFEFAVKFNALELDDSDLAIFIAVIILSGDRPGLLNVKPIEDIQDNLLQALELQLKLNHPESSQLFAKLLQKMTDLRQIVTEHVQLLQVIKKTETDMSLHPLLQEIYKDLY
# [5] = target: T3, Peroxisome proliferator-activated receptor alpha (Homo sapiens, UniProt Q07869); experiment: Maximum transcriptional activation of human PPAR alpha receptor
# T3 sequence (Q07869 whole entry): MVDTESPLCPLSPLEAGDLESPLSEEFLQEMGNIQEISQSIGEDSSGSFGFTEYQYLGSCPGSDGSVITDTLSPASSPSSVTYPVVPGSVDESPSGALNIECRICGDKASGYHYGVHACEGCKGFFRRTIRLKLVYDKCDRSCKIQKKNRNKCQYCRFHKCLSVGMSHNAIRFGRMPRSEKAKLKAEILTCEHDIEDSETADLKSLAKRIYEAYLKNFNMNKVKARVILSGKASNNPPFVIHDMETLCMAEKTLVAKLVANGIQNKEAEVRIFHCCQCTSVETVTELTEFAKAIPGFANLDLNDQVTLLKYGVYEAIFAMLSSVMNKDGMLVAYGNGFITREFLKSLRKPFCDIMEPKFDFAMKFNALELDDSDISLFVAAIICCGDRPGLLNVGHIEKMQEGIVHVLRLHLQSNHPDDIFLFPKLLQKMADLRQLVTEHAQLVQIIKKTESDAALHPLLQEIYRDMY
# [6] = target: T3, Peroxisome proliferator-activated receptor alpha; experiment: Maximum transcriptional activation of human PPAR alpha receptor; IA=inactive
# [7] = target: T2, Peroxisome proliferator-activated receptor gamma; experiment: Maximum transcriptional activation of human PPAR gamma receptor; IA=inactive
# [8] = target: T4, Peroxisome proliferator-activated receptor gamma (Mus musculus, UniProt P37238); experiment: Activity against murine PPAR gamma receptor
# T4 sequence (P37238 whole entry): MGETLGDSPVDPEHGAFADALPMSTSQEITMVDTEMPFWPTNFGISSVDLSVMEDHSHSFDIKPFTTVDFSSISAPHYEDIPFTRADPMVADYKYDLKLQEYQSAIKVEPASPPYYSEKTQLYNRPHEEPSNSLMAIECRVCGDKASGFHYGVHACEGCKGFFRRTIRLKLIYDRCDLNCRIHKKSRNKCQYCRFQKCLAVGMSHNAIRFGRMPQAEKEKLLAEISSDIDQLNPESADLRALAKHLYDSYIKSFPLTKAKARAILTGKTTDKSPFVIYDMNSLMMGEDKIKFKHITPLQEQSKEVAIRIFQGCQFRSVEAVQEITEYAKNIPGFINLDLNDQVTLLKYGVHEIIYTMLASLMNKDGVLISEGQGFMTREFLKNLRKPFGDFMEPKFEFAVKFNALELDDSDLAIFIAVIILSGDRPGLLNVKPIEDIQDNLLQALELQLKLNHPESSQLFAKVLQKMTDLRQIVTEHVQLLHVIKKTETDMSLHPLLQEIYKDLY
SMILES,half-life [1] [min],EC50 [2] [nM],IC50 [3] [nM],EC50 [4] [nM],EC50 [5] [nM],EC50 [6],EC50 [7],EC50 [8] [nM]
Cc1nc(-c2ccc(C(F)(F)F)cc2)oc1COc1ccc(CCC(=O)O)cc1,< 10,60,90,3300,280,,,
Cc1nc(-c2ccc(C(F)(F)F)cc2)sc1COc1ccc(CCC(=O)O)cc1,,90,30,7040,3000,,,
Cc1nc(-c2ccc(C(F)(F)F)cc2)sc1COc1ccc(CC(=O)O)cc1,,1900,1000,7900,6900,,,
Cc1cc(OCc2sc(-c3ccc(C(F)(F)F)cc3)nc2C)ccc1/C=C/C(=O)O,,20,1000,2700,3200,,,
Cc1nc(-c2ccc(C(F)(F)F)cc2)oc1COc1ccc(OCC(=O)O)cc1,,470,340,9800,,Not Active,,
Cc1cc(OCc2sc(-c3ccc(C(F)(F)F)cc3)nc2C)ccc1CCC(=O)O,,30,60,4200,1700,,,
Cc1cc(SCc2oc(-c3ccc(C(F)(F)F)cc3)nc2C)ccc1OCC(=O)O,,10,3,1610,2500,,,
Cc1nc(-c2ccc(C(F)(F)F)cc2)oc1CSc1ccc(OCC(=O)O)cc1,,420,90,6400,,Not Active,,
Cc1nc(-c2ccc(C(F)(F)F)cc2)oc1COc1ccc(C(=O)O)cc1,,5900,5500,,,Not Active,Not Active,
Cc1cc(SCc2sc(-c3ccc(C(F)(F)F)c(F)c3)nc2C)ccc1OCC(=O)O,,,,2000,1100,,,> 10000
Cc1cc(OCc2oc(-c3ccc(C(F)(F)F)cc3)nc2C)ccc1OCC(=O)O,,30,30,,3200,,Not Active,
